Measurements reported in patent publication US8497075B2, “Methods of identifying a modulator that inhibits the binding between Epstein-Barr virus induced receptor 2 and cholesterol derived ligands” (Novartis AG, priority 2008, dated 2013).
Like-named read-outs stand apart in the source and are kept apart here.

Tests used:
Set-up in all cases: expressed in transfected cells; host or cells: CHO-K1 expressing apoaequorin (CHO-Aeq) with Gqi5; line E2
[1] = target: T1, hEBI2 (Homo sapiens, UniProt P32249); experiment: calcium fluorescence (FLIPR); format: cell-based
Procedure: If not stated otherwise compounds were dissolved at 10 mM in DMSO or ethanol (cholesterol, 25MDC). Serial dilutions were carried out in 90% DMSO (FLIPR, GTPgS) or assay buffer (binding assay). For cell based assays final DMSO concentrations is kept below 1%.
If not stated otherwise, the same Chinese hamster ovary (CHO) cell line called E2 which was used for the ligand identification was used in these experiments. This cell line is expressing (1) the recombinant human EBI2 receptor, (2) the promiscuous Gqi5 protein as well as (3) apo-aequorin.
Cells were seeded in black/clear bottom, poly-D-Lysine coated 384-well plates at a cell density of 10,000 cells/25 μL/well, using culture medium. Cells were cultured for 24 hours at 37° C./5% CO2. Culture medium was removed and for cell loading, 20 μl per well of loading buffer (Calcium-4 no wash dye) were distributed into the wells and the plates were incubated for 60 min at 37° C. in 5% CO2. With the FLIPR pipettor, 10 μl of the different compounds were added to the cells and the subsequent fluorescent changes monitored for 3 minutes. Using the FLIPR software tool, 2 values of fluorescence calcium responses were exported: Fmax, the fluorescence at the peak and Fbasal corresponding to the value prior to compound injection. From these two values, the calcium response is normalized with respect to the calcium baseline values using dF/F=(Fmax−Fbasal)/Fbasal. The maximum dF/F is called Emax.

[2] = target: T1, hEBI2; experiment: GTPγS assay on EBI2 membranes; format: biochemical
Procedure: (§1) The cell suspension was then homogenized using a Dounce homogenizer (10 strokes) with a driller. After centrifugation at 110000×g for 45 minutes and removal of the supernatant, pellets were resuspended in sucrose buffer (50 mM Tris pH7.2, 250 mM sucrose, 10% glycerol) by vortexing. The suspension was again homogenize using a Dounce homogenizer (10 strokes) and spun at 100000×g for 45 minutes. The supernatant was discarded, the pellet resuspended in sucrose buffer, protein concentration determined, aliquoted and frozen at −80° C. These membrane preparations were used in binding as well as GTPgS assays.
Ten micrograms of EBI2 membranes are dissolved in 40 μl of buffer A (20 mM Hepes pH 7.4, 100 mM NaCl, 1.5 mM MgCl2, Saponin 10 μg/ml) supplemented with 10 μM GDP. After addition of […] scintilation proximity assay (SPA) beads (100 μg/well, Amersham, RPNQ0001) components are gently mixed and incubated at RT for 15 minutes. Twenty microliters of compound diluted in buffer A and 20 μl of GTPγ^35S (Perkin Elmer NEG030X) is added before incubation for one hour at RT. Plates are transferred and counted in a TopCount (Perkin Elmer NXT HTS™) and counts are analysed plotted and to determine half maximal concentrations of activation using standard software (Prism™, GraphPad Software Inc.).

[3] = target: T1, hEBI2; experiment: [3H] 7a,25DHC radio-ligand binding assay (SPA), IC50 determination
Procedure: as §1
Lyophilized wheat germ agglutinin scintilation proximity assay (SPA) beads (RPNQ0001) were purchased from GE Healthcare (Buckinghamshire, UK). One vial (500 mg) is reconstituted by adding 5 mL of distilled water to give a final concentration of 100 mg/mL. Reconstituted SPA beads must be stored at 4° C., but must not be frozen. [3H]-7a,25-OHC, was synthesized by reduction of the 7-keto, 25DHC in the presence of 3H-L-selectride.
The SPA assay was performed in a final volume of 50 μl per well in a 384-well polystyrene Opti plate. The components were added into the wells as follows: • 10 μl tested compounds in 50 mM Tris; 100 mM NaCl; 5 mM MgCl2 and 0.1% Cyclodextrine.
Total binding was determined by the addition of 10 μl of 50 mM Tris; 100 mM NaCl; 5 mM MgCl2 and 0.1% Cyclodextrine and non-specific binding was determined by the addition of 10 μl NVP-BYX998-NX-4 (final concentration of 10 μM). • 20 μL of 10 nM final [3H]-BYX998 in assay buffer (50 mM Tris-HCl, 100 mM NaCl, 5 mM MgCl2 and 0.1% Cyclodextrine). • 20 μL of a mixed bead and membrane suspension in assay buffer, in order to get a final concentration of 20 μg membranes/well and 200 μg beads/well.
The plates were sealed and shaken at room temperature for 10 minutes then allowed to stand at room temperature for at least 12 hours. The plates were counted using a Perkin Elmer TopCount reader, each well being counted for 1 minute.
Each IC50 determination was performed with 11 concentrations.
A standard data reduction algorithm was used to calculate the percentage of specific binding in the presence of test compound as follows: ((B−NSB)/(Total−NSB))·100, where B=Binding in the presence of test compound (in cpm) NSB=Non-specific binding in the presence of excess inhibitor (in cpm) Total=Binding in the absence of test compound (in cpm) Curve fitting of the normalized concentration response curves using a four parameter logistic fit is then performed using XLfit (v.2 or v.4, IDBS, Guildford, UK). The equation used is XLfit equation no. […] By default, min is fixed at 0, whereas max is not fixed.

[4] = 10 nM radioligand, n = 3, read-out: [^3H] 7a,25DHC Binding IC50

T1 sequence (P32249 whole entry): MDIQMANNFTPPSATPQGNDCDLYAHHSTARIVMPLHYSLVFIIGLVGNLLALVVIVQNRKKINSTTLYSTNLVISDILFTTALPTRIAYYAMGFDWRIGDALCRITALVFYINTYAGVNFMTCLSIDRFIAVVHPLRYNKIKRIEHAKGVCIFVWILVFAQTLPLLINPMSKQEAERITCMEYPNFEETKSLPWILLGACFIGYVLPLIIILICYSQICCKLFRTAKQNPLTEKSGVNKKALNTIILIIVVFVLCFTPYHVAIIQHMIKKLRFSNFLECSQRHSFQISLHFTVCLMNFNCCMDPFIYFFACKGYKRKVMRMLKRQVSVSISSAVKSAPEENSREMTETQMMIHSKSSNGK

C[C@H](CCCC(C)(C)O)[C@H]1CC[C@H]2[C@@H]3[C@H](O)C=C4C[C@@H](O)CC[C@]4(C)[C@H]3CC[C@]12C [7a,25DHC, cholest-5-ene-3b,7a,25-triol]
EC50 [1]: 1.9 nM
EC50 [2]: 7.5 nM
IC50 [3, 4]: 70.4 nM

CC(CO)CCC[C@@H](C)[C@H]1CC[C@H]2[C@@H]3[C@H](O)C=C4C[C@@H](O)CC[C@]4(C)[C@H]3CC[C@]12C (stereo partly drawn) [7a,27DHC, cholest-5-ene-3b,7a,27-triol]
EC50 [1]: 4.8 nM
EC50 [2]: 5.1 nM
IC50 [3]: 362 nM

C[C@H](CCCC(C)(C)O)[C@H]1CC[C@H]2[C@@H]3[C@@H](O)C=C4C[C@@H](O)CC[C@]4(C)[C@H]3CC[C@]12C [7b,25DHC, cholest-5-ene-3b,7b,25-triol]
EC50 ([1]; n = 3-4, read-out: FLIPR EC50): 121 nM
EC50 ([2]; n = 3-4, read-out: GTPgS EC50): 221 nM
IC50 [3, 4]: 2630 nM
